Key:
human bone marrow cells = details: 1, 2.5, 5 and 7 sec time points; every time point tested; FIG. 1
C57BL/6J mice [1] = details: 30 mg/kg/day orally for 3 months (90 days); compared to calcium gluconate or vehicle; p<0.05; FIG. 2A
Procedure: (§1) Vehicle (saline) was administered to the third group of mice as a control. The animals were then subject to TST and FST.

C57BL/6J mice [2] = details: 30 mg/kg/day orally for 3 months (90 days); compared to calcium gluconate or vehicle; p<0.05; FIG. 2B
Procedure: In an FST, each mouse is placed in a separate acrylic glass cylinder that is filled with water (23-25° C.) to a level high enough to prevent the mouse from touching the bottom of the cylinder with his paws or tail, yet low enough to prevent the mouse from escaping through the top opening of the cylinder. The mice are thus forced to swim in the cylinders. […] FST is the most widely used as a screen for acute antidepressants, and the duration of immobility is the main parameter by which the effectiveness of an antidepressant treatment is measured.
as §1

[3] = in vivo; cited from earlier work

Structure (SMILES): O=C(O)[C@H](O)[C@@H](O)CO (stereo in doubt) [calcium (2R, 3S)-2,3,4-trihydroxybutyric acid]
- calcium absorption by human bone marrow cells relative to calcium gluconate (human bone marrow cells): approximately three times more
- duration of immobility in TST (C57BL/6J mice [1]): significantly decreased duration of immobility
- duration of immobility in FST (C57BL/6J mice [2]): significantly decreased duration of immobility
- bioavailability compared to calcium gluconate, calcium acetate and calcium carbonate [3]: higher bioavailability

— patent US20140080908A1, “COMPOSITIONS AND METHODS FOR IMPROVING OR […]-LIKE SYMPTOMS” (PHYTO TECH CORP., priority 2012, published 2014)
